One data set relates to NSC34 cells. Briefly: NSC34 oxidative stress assay (serum withdrawal, DCF).
For data set [1], the system named is 1321N1 astrocyte cell line. The data set is described as follows: 1321N1 oxidative stress assay (serum withdrawal, DCF).
Protocol: (§1) Media were then replaced with serum-free, phenol-free media for 5 h.
The test system of data set [2] is Nrf2-ARE pathway. Briefly: ARE reporter assay in C6 astrocyte cell line (C6-ARE). The conditions noted are these: C6-ARE, highest dose. It counts as cell-based, rat. From the text: Chinese hamster ovary (CHO), NSC34 mouse motor neuronal cells […] The ARE-TK-GFP and TK-GFP reporter constructs were a kind gift from William E. Fahl McArdle Laboratory for Cancer Research, University of Wisconsin. […] The NSC34 cell lines stably expressing G93A mutant hSOD1 have been described previously. […] Mouse embryonic fibroblasts were generated and maintained as described previously.
(In general: Reporter assays use an easily measured gene product as a stand-in for the process of interest.)

Data set [3] has as its system Nrf2-ARE pathway. Briefly: ARE reporter assay in CHO 4xARE-TK-GFP cells (Spectrum library hits).
In another data set the test system is C6 astrocyte cell line. Briefly: C6 oxidative stress assay (serum withdrawal, DCF).
The next data set deals with D1 receptors. The conditions noted are these: read-out: Ki D1 receptors; cited from earlier work.
A further data set concerns the target D4 receptors. Particulars: read-out: Ki D4 receptors; cited from earlier work.
Data set [4] can be described thus: Pharmacokinetic analysis in C57Bl/6 mice. Particulars: 1 mg/kg. Format: in vivo, mouse. On the procedure: Pharmacokinetic studies were performed by Pharmidex (London, UK). […] All concentrations were calculated with reference to the relevant standard curve. An extraction buffer (EB) solution of acetonitrile with 0.1% formic acid (Fisher Scientific, HPLC grade) and 500 ng/ml of propranolol as the internal standard (IS) was used for in all extraction protocols.

The conditions of data set [5]: mouse ref 73; cited from earlier work.
For data set [6] the following is noted: cited from earlier work.
Data set [7] relates to primary fibroblasts from ALS patients. The data set is described as follows: Oxidative stress assay in ALS patient and control fibroblasts. Format: cell-based, human. The conditions noted are these: 3.7 or 0.41 µM, 24 h. Here is the method:
Fibroblasts were obtained from human controls (n=3) and ALS patients with I113T SOD1 mutations (n=3) and sporadic ALS patients (n=2). […] The cells were incubated at 37 °C/5% CO2 overnight. The following day the media were removed and the cells were washed with 200 µl 1XP BS. Phenol red-free DMEM/F12 media (Sigma D6434) was added in the presence of 10% serum/2 mM Gln (++), 10% serum/0 mM Gln (+−), or 0% serum/0 mM Gln (−−). Cells were incubated at 37 °C/5% CO2 for 5 h.
Carboxy-H2DCFDA fluorescence was normalised to live cell number (total EthD1 signal after freeze/thaw – EthD1 signal after assay) to compare between the different cell lines. Data were analysed by one-way ANOVA with Bonferroni post tests using GraphPad Prism
DMEM/F12 (50 µl) media were added in the presence of 10% serum/0 mM Gln (+−) and the cells were incubated at 37 °C and 5% CO2 for 5 h.
The data were tested for normality and analysed by one-way ANOVA using GraphPad Prism.

[8] abbreviates: minimum dose at which toxicity was observed.

pEC50, pIC50, pKi: −log10 of the molar value. Structures can show the parent of a compound that is named as a salt.

Protocol for NSC34 cells: as §1

By pIC50 is commonly meant the IC50 on a negative log10 scale, so that one unit is a factor of ten. A word on the pEC50: it is −log10 of the EC50, conventionally taken in molar units. Higher therefore signals a low EC50. What is called pKi is the negative decadic logarithm of the Ki, by convention in mol/L. Regarding `CN1CCc2cccc3c2[C@H]1Cc1ccc(O)c(O)c1-3` [Apomorphine hydrochloride, reference compound], the Emax in the data set with NSC34 cells (Mus musculus, NSC-34, 24 h, read-out: NSC34 oxidative stress assay Max reduction) was 25%; in [1] (Homo sapiens, 1321-N1, 24 h, read-out: 1321N1 oxidative stress assay Max reduction), 79%; with C6 astrocyte cell line (Rattus norvegicus, Astrocyte, 24 h, read-out: C6 oxidative stress assay Max reduction) it was 62%. Also, the pIC50 in the data set on NSC34 cells (Mus musculus, NSC-34, read-out: NSC34 oxidative stress assay IC50) was 6.76; in data set [1] (Homo sapiens, 1321-N1, read-out: 1321N1 oxidative stress assay IC50) it was 5.77; in the data set on C6 astrocyte cell line (Rattus norvegicus, Astrocyte, read-out: C6 oxidative stress assay IC50) it was 5.77. For the same compound, the “NSC34 oxidative stress assay Toxic dose” value with NSC34 cells (setting [8]) worked out at 10 µM. For the same compound, the “1321N1 oxidative stress assay Toxic dose” value in data set [1] (setting [8]) is given as “None”. For the same compound, the dose showing toxicity with Nrf2-ARE pathway [2] is recorded as 30 µM. The pEC50 with Nrf2-ARE pathway [3] (Cricetulus griseus) is 4.59. Moreover, the Toxic dose in the data set with Nrf2-ARE pathway [3] (lowest dose at which a reduction in GFP fluorescence was observed) worked out at 100 µM. The “C6 oxidative stress assay Toxic dose” value in the data set with C6 astrocyte cell line (setting [8]) is listed as “None”. Also, the negative logarithm of the Ki (pKi) at D1 receptors was 6.43; at D4 receptors it was 8.36.
Broadly, the Kp is the ratio of the level in a tissue or fluid to that in plasma or blood. In general, clearance refers to the volume of plasma or blood freed of the substance per unit of time. For the compound `CN1CCc2cccc3c2[C@H]1Cc1ccc(O)c(O)c1-3` [apomorphine], the concentration ratio (Kp) in data set [4] (C57Bl/6, mouse, brain / plasma, intravenous, read-out: brain:plasma (Kp)) worked out at 2.1. Moreover, the clearance in data set [4] (C57Bl/6, plasma, mouse, iv) is 109 mL/min/kg. Moreover, the “plasma protein binding fraction (unbound)” value in data set [5] is 0.222. Moreover, the “fraction absorbed following subcutaneous dosing” value in data set [6] (humans ref 75) is recorded as 1. For the same compound, the “Tmax following subcutaneous dosing” value in data set [6] (humans ref 76) was 8 to 16 min. Further, in [7], the “cell number compared to DMSO control” value is reported as “no effect on cell number”.

(Values after PMC3684770 (Free Radical Biology & Medicine, 2013).)
